# Measurements reported in article PMC9298070, “Lack of a Clinically Meaningful Drug Interaction Between the HIV‐1 Antiretroviral Agents Islatravir, Dolutegravir, and Tenofovir Disoproxil Fumarate” (Clinical Pharmacology in Drug Development, 2021).
# Counter-ions that a name gives are not always drawn. Like-named read-outs stand apart in the source and are kept apart here.
# Tests used:
# [1] = Plasma pharmacokinetics in phase 1, open-label, fixed-sequence, 2-period drug interaction trial (MK-8591-005); type: in vivo, human; conditions: for C24, GMR (90%CI): Islatravir + Dolutegravir + TDF / Dolutegravir + TDF; for half-life / concentration at 24 h / AUC / Cmax / Tmax: human, oral; for half-life / concentration at 24 h / Cmax, GM (95%CI) / tmax, median (min‐max) / Apparent terminal t1/2, geometric mean (geometric CV %) / AUC / Cmax / Tmax: plasma, N = 12; for Tmax: read-out: tmax, median (min‐max)
# Description: (§1) This was a phase 1, open‐label, fixed‐sequence, 2‐period trial in adults without HIV (protocol MK‐8591‐005). In period 1, participants received a single oral dose of 20 mg islatravir. In period 2, participants received multiple oral doses of 50 mg dolutegravir and 300 mg TDF once daily for 11 consecutive days (days 1‐11), with a single oral dose of 20 mg islatravir coadministered on day 8. There was a washout period of ≥7 days between islatravir dosing in period 1 and the first dose of dolutegravir and TDF in period 2 (Figure 1).
# Blood samples for islatravir plasma analysis were collected before dosing and at selected time points over 96 hours following administration of islatravir on day 1 of period 1 and day 8 of period 2. In period 2, samples taken at 24, 48, and 72 hours for islatravir plasma analysis were collected before dose administration of dolutegravir and TDF. Blood samples for plasma analysis of dolutegravir and tenofovir were collected before dosing on days 1, 7, and 8 of period 2 and at selected time points over 24 hours after dosing on days 7 and 8 of period 2. The 24 hour samples for dolutegravir and tenofovir analysis for days 7 and 8 were collected before dosing of dolutegravir and TDF.
# Plasma concentrations of islatravir, dolutegravir, and tenofovir were determined by inVentiv Health Clinique (Québec City, Québec, Canada) using validated high‐performance liquid chromatography coupled to tandem mass spectrometry methods.
# Islatravir (m/z 294.000/154.000) was extracted using an automated protein precipitation method using [^13C,^15N3]‐ISL as internal standard (m/z 297.800/158.000). The extracted samples were assessed on a system equipped with a X Select HSS T3 C18, 50×2.1 mm, 2.5 μm column with water/acetonitrile with formic acid mobile phase. […] The lower limit of quantitation for islatravir was 0.10 ng/mL, with an analytical range of 0.10 to 100.00 ng/mL.
# Dolutegravir (m/z 420.200/277.200) was extracted using an automated protein precipitation method using [C^13‐d5]‐dolutegravir as the internal standard (m/z 426.300/277.300). The extracted samples were assessed on a system equipped with an ACE 3 C18, 30 × 4.6 mm, 3 μm column (Avantor, Radnor, Pennsylvania) with water/methanol with ammonium formate and formic acid mobile phase. […] The lower limit of quantitation for dolutegravir was 10.00 ng/mL, with an analytical range of 10.00 to 10 000.00 ng/mL.
# Tenofovir (m/z 288.200/176.200) was extracted using an automated solid phase extraction using tenofovir‐d6 as internal standard (m/z 294.100/182.300). The extracted samples were assessed on a system equipped with an Atlantis dC18, 75 × 4.6 mm, 3 μm column (Waters Corp., Milford, Massachusetts) with water/acetonitrile with ammonium formate and formic acid mobile phase. […] The lower limit of quantitation for tenofovir was 0.50 ng/mL, with an analytical range of 0.50 to 500.00 ng/mL.
# Plasma islatravir, dolutegravir, and tenofovir pharmacokinetics were summarized descriptively. Pharmacokinetic parameter values were calculated using the software Phoenix WinNonlin version 6.3 (Certara, Princeton, New Jersey). Cmax, C24, and tmax values were obtained directly from the observed plasma concentration–time data.
# [2] = Safety and tolerability in the phase 1 trial (adverse event reports, laboratory tests, ECG, vital signs); type: in vivo, human; conditions: after administration of dolutegravir and TDF; of 12 participants
# Description: as §1
# Safety and tolerability were monitored by repeated clinical and laboratory evaluations for the duration of the trial. Safety evaluations included adverse event (AE) reports, laboratory tests, 12‐lead electrocardiograms, and vital signs.
# Incidence of adverse experiences was descriptively summarized.
# [3] = design: method as in PMID 19884365; conditions: once-daily multiple dosing; cited from earlier work
# [4] = in vivo; cited from earlier work
# [5] = steady state, 50 mg dolutegravir + 300 mg TDF once daily days 1-7, period 2, without islatravir, read-out: Apparent terminal t1/2, geometric mean (geometric CV %) (converted)
# [6] = steady state, 50 mg dolutegravir + 300 mg TDF once daily days 1-7, period 2, without islatravir, read-out: Apparent terminal t1/2, AM (SD) (converted)
# [7] = steady state, 50 mg dolutegravir + 300 mg TDF once daily days 1-7, period 2, without islatravir, read-out: C24, AM (SD)
# [8] = steady state, 50 mg dolutegravir + 300 mg TDF once daily days 1-7, period 2, without islatravir, read-out: C24, GM (95%CI)
# [9] = 50 mg dolutegravir + 300 mg TDF once daily with single 20 mg islatravir on day 8, period 2, read-out: C24, AM (SD)
# [10] = 50 mg dolutegravir + 300 mg TDF once daily with single 20 mg islatravir on day 8, period 2, read-out: C24, GM (95%CI)
# [11] = steady state, 50 mg dolutegravir + 300 mg TDF once daily days 1-7, period 2, without islatravir
# [12] = 50 mg dolutegravir + 300 mg TDF once daily with single 20 mg islatravir on day 8, period 2
"C24, GMR (90%CI) [1]","half-life [1, 5]","half-life [1, 6]","concentration at 24 h [1, 7]","concentration at 24 h [1, 8]","concentration at 24 h [1, 9]","concentration at 24 h [1, 10]","Apparent terminal t1/2, geometric mean (geometric CV %) [1, 12]",Structure (SMILES),participants reporting AEs considered drug-related [2],further results
1.10 (1.03‐1.17),15.2 h,15.3 h,1220 ng/mL,1120 ng/mL,1310 ng/mL,1240 ng/mL,15.5 (16.2) h,C[C@@H]1CCO[C@H]2Cn3cc(C(=O)NCc4ccc(F)cc4F)c(=O)c(O)c3C(=O)N12 [Dolutegravir],3 participants,"half-life ([1]; 50 mg dolutegravir + 300 mg TDF once daily with single 20 mg islatravir on day 8, period 2, read-out: Apparent terminal t1/2, AM (SD) (converted)): 15.7 h; Cmax, GM (95%CI) [1, 11]: 3500 (2770‐4430) ng/mL; tmax, median (min‐max) [1, 11]: 2.50 (0.50‐4.13) h; Cmax, GM (95%CI) [1, 12]: 3570 (2950‐4330) ng/mL; tmax, median (min‐max) [1, 12]: 3.00 (1.00‐6.03) h; time to steady‐state concentrations [3]: ≤ 5 days"
–,–,–,–,–,–,–,–,"CC(C)OC(=O)OCOP(=O)(CO[C@H](C)Cn1cnc2c(N)ncnc21)OCOC(=O)OC(C)C [TDF, tenofovir disoproxil fumarate]",3 participants,–
1.05 (0.97‐1.14),13.7 h,13.8 h,43.6 ng/mL,42.6 ng/mL,45.3 ng/mL,44.8 ng/mL,13.2 (11.0) h,C[C@H](Cn1cnc2c(N)ncnc21)OCP(=O)(O)O [Tenofovir],–,"AUC ([1]; steady state, 50 mg dolutegravir + 300 mg TDF once daily days 1-7, period 2, without islatravir, read-out: AUC0‐24, AM (SD)): 2250 ng·h/mL; AUC ([1]; steady state, 50 mg dolutegravir + 300 mg TDF once daily days 1-7, period 2, without islatravir, read-out: AUC0‐24, GM (95%CI)): 2220 ng·h/mL; Cmax ([1]; steady state, 50 mg dolutegravir + 300 mg TDF once daily days 1-7, period 2, without islatravir, read-out: Cmax, AM (SD)): 346 ng/mL; Cmax ([1]; steady state, 50 mg dolutegravir + 300 mg TDF once daily days 1-7, period 2, without islatravir, read-out: Cmax, GM (95%CI)): 339 ng/mL; Tmax [1, 11]: 1 h; AUC ([1]; 50 mg dolutegravir + 300 mg TDF once daily with single 20 mg islatravir on day 8, period 2, read-out: AUC0‐24, AM (SD)): 2350 ng·h/mL; AUC ([1]; 50 mg dolutegravir + 300 mg TDF once daily with single 20 mg islatravir on day 8, period 2, read-out: AUC0‐24, GM (95%CI)): 2330 ng·h/mL; Cmax ([1]; 50 mg dolutegravir + 300 mg TDF once daily with single 20 mg islatravir on day 8, period 2, read-out: Cmax, AM (SD)): 343 ng/mL; Cmax ([1]; 50 mg dolutegravir + 300 mg TDF once daily with single 20 mg islatravir on day 8, period 2, read-out: Cmax, GM (95%CI)): 333 ng/mL; Tmax [1, 12]: 1.01 h; time to steady‐state concentrations [4]: ≤ 7 days"
